# Results taken from patent publication US20230295140A1, “INHIBITORS OF VAP-1” (Acucela Inc., priority 2021, published 2023).
# Assays:
# Format in all cases: biochemical
# rhVAP-1 = rhVAP-1 (Homo sapiens (Human), UniProt Q16853); assay: VAP-1 fluorometric assay (Amplex Red/HRP, benzylamine substrate); conditions: class symbols, ranges defined in μM
# Experimental: The capability of compounds described herein to inhibit the enzymatic activity of vascular adhesion protein-1 (VAP-1) was determined by fluorometric assay. The assay procedure provided by R&D Systems was modified slightly for use as an inhibitor screening assay. The assay measured the H2O2 generated from the oxidative deamination of benzylamine by rhVAP-1 by converting Amplex® Red to the fluorescent product, resorufin, via horseradish peroxidase (HRP) and H2O2. Reaction buffer was 10 mM NaHCO3, pH 7.4. A standard curve was prepared by serially diluting H2O2 in reaction buffer. A 10 μM solution of resorufin was prepared in reaction buffer and was dispensed to 2 wells. These wells served as positive control for maximum fluorescence. Reaction buffer was added to the individual wells so that the final volume in each well was 100 μL. Amplex Red was diluted to 1 mM in reaction buffer. A 10 U stock of HRP was prepared in reaction buffer. A reaction cocktail was prepared by mixing equal parts 1 mM Amplex Red with 10 U HRP with 3 parts reaction buffers. The reaction cocktail was added to the appropriate wells, so that that final concentration in the well was 0.05 mM Amplex Red and 0.5 U HRP. A 200 μM solution of benzylamine was prepared in reaction buffer. Benzylamine was added to the appropriate wells so that the final concentration was 50 μM. Inhibitors were diluted in DMSO to 20× and distributed to the appropriate wells. LJP-1207 served a positive control. rhVAP-1 was purchased from R&D Systems. The concentration used for each lot was determined so that the activity was equal to the first lot. Two wells were left blank as controls. The plate was incubated for 30 minutes at 37° C., protected from light under foil. The plate was read at 530/35 emission and 590/35 excitation. Data processing was performed using Excel and Prism software.
# The capability of compounds described herein to inhibit the enzymatic activity of vascular adhesion protein-1 (VAP-1) was determined by fluorometric assay. The assay procedure provided by R&D Systems was modified slightly for use as an inhibitor screening assay. The assay measured the H2O2 generated from the oxidative deamination of benzylamine by rhVAP-1 by converting Amplex® Red to the fluorescent product, resorufin, via horseradish peroxidase (HRP) and H2O2. Amplex Red, HRP, Benzylamine, inhibitors (with DMSO as vehicle, 0.5% v/v) and rhVAP-1 were added to the wells. Assay was conducted in 10 mM NaHCO3, pH 7.4. A standard curve was prepared by serially diluting H2O2 in reaction buffer. The plate was incubated for 30 minutes at 37° C., protected from light under foil. The plate was read at 530/35 emission and 590/35 excitation. Data processing was performed using Prism software.
# rhMAO-A = rhMAO-A (Homo sapiens (Human), UniProt P21397); assay: MAO-Glo assay, MAO-A inhibition
# Chain of rhMAO-A (P21397 whole entry): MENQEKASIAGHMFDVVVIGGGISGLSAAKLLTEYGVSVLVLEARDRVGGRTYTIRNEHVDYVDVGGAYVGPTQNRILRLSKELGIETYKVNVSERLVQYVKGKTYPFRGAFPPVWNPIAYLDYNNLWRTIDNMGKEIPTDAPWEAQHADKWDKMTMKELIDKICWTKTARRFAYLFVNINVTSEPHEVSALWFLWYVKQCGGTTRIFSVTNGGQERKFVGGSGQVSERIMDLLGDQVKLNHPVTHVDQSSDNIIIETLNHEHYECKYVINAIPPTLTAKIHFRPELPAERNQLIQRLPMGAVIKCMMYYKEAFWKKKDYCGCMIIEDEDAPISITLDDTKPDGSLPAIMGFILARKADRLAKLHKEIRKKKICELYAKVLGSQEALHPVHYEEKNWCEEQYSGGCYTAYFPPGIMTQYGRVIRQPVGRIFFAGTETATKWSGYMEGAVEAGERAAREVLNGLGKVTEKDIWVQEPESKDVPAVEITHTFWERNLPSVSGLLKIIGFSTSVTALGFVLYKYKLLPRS
# Experimental: (§1) The capability of compounds described herein to inhibit MAO was determined using a modified Promega MAO-Glo™ assay kit. The substrate ((4S)-4,5-dihydro-2-(6-hydroxybenzothiazolyl)-4-thiazolecarboxylic acid) was converted by MAO to produce methyl ester luciferin. The luciferin was then converted by luciferase to produce oxyluciferin and light. The light was measured using a luminescence setting on the plate reader. A standard curve was prepared by serially diluting luciferin in reaction buffer. The standard kit reaction buffer was used—100 mM HEPES (pH 7.5), 5% glycerol. The substrate was dispensed into the wells so that the final concentration for MAO-A inhibition assay would be 10 μM and MAO-B inhibition assay would be […]. Inhibitors were diluted in DMSO to 4× and distributed to the appropriate wells. Clorgyline and Deprenyl served as positive controls. rhMAO-A and rhMAO-B were purchased from Sigma. MAO-A or MAO-B was added to the appropriate wells. The plate was incubated for 1 hour, at room temperature with gentle shaking (90 rpm). The detection agent was added at equal volume (48 μL detection agent to 48 μL reaction). The plate was incubated for 20 minutes, at room temperature with gentle shaking (90 rpm). The plate luminescence was read. Data processing was performed using Prism software.
# (§2) The capability of compounds described herein to inhibit MAO was determined using a modified Promega MAO-Glo™ assay. Test compounds, substrate and enzyme were incubated per manufacturer instructions for 1 hour, at room temperature with gentle shaking (90 rpm) before addition of detection agent. The detection agent was added at equal volume (48 μL detection agent to 48 μL reaction). The plate was incubated for 20 minutes, at room temperature with gentle shaking (90 rpm). The plate luminescence was read. Data processing was performed using Prism software.
# rhMAO-B = rhMAO-B (Homo sapiens (Human), UniProt P27338); assay: MAO-Glo assay, MAO-B inhibition
# Chain of rhMAO-B (P27338 whole entry): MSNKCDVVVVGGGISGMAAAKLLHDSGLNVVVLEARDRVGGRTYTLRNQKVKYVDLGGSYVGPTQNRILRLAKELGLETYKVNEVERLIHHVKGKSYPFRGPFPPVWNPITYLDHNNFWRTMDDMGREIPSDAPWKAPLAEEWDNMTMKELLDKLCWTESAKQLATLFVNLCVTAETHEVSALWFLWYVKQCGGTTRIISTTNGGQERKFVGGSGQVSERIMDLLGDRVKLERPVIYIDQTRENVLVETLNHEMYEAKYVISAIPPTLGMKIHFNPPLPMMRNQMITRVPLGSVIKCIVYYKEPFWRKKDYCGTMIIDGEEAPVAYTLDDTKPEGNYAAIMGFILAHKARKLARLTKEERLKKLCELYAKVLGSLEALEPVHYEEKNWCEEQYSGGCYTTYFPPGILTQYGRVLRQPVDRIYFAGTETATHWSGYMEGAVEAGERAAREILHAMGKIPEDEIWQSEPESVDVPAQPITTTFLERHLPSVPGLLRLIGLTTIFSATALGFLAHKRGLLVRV
# Experimental: as §1, §2
# [1] = class symbols, ranges defined in μM
# Chain of rhVAP-1 (Q16853 whole entry): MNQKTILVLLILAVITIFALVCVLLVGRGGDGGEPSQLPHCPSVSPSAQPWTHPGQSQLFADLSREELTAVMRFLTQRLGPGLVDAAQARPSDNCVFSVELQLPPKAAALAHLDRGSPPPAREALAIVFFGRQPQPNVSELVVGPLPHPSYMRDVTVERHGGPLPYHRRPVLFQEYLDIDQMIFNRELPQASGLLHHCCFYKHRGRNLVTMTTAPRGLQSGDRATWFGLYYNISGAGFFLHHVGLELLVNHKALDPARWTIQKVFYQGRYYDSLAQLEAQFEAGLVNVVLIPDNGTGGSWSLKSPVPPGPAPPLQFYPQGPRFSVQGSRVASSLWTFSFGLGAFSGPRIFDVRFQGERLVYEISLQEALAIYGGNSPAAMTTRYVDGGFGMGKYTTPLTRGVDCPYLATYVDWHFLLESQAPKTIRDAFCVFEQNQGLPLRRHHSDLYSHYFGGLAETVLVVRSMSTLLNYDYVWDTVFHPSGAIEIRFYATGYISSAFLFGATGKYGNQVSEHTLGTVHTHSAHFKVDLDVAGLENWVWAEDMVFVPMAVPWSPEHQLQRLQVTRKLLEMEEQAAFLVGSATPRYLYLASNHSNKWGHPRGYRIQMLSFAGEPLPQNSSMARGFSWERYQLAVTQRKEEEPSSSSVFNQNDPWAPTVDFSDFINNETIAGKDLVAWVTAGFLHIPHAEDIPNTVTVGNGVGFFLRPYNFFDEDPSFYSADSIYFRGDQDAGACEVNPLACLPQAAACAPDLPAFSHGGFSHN
SMILES,IC50 (rhVAP-1) [µM],IC50 (rhMAO-A; bound printed in cell) [µM],IC50 (rhMAO-B; [1]) [µM],IC50 (rhMAO-A; [1]) [µM],IC50 (rhMAO-B; number printed in cell) [µM],IC50 (rhMAO-B; bound printed in cell) [µM]
"CC1CN(c2nc3ccc(OC/C(=C/F)CN)cc3o2)C(C)(C)C1 (stereo not drawn) [Example 86, (E)-3-fluoro-2-(((2-(2,2,4-trimethylpyrrolidin-1-yl)benzo[d]oxazol-6-yl)oxy)methyl)prop-2-en-1-amine 4-methylbenzenesulfonate]",< 0.1,> 50,1 to 10,,,
"NC/C(=C\F)COc1ccc2nc(C3CCCC3)oc2c1 [Example 37, (E)-2-(((2-cyclopentylbenzo[d]oxazol-6-yl)oxy)methyl)-3-fluoroprop-2-en-1-amine 4-methylbenzenesulfonate]",< 0.1,,0.1 to 1,1 to 10,,
"COc1ccc(CNc2nc3ccc(OC/C(=C/F)CN)cc3o2)cc1 [Example 24, (E)-6-((2-(aminomethyl)-3-fluoroallyl)oxy)-N-(4-methoxybenzyl)benzo[d]oxazol-2-amine 4-methylbenzenesulfonate]",< 0.1,,,10 to 30,0.637,
"NC/C(=C/F)COc1ccc2nc(N3CCOCC3)oc2c1 [Example 64, (Z)-3-fluoro-2-(((2-morpholinobenzo[d]oxazol-6-yl)oxy)methyl)prop-2-en-1-amine 4-methylbenzenesulfonate]",< 0.1,,1 to 10,1 to 10,,
"CN(Cc1ccccc1)c1nc2ccc(OC/C(=C/F)CN)cc2o1 [Example 49, (E)-6-((2-(aminomethyl)-3-fluoroallyl)oxy)-N-benzyl-N-methylbenzo[d]oxazol-2-amine 4-methylbenzenesulfonate]",< 0.1,,0.1 to 1,10 to 30,,
"CNC(=O)C(Cc1ccccc1)Nc1nc2ccc(OC/C(=C\F)CN)cc2o1 (stereo not drawn) [Example 56, (Z)-2-((6-((2-(aminomethyl)-3-fluoroallyl)oxy)benzo[d]oxazol-2-yl)amino)-N-methyl-3-phenylpropanamide 4-methylbenzenesulfonate]",< 0.1,> 50,10 to 30,,,
"NC/C(=C/F)COc1ccc2nc(NCCC(Cl)CCO)oc2c1 (stereo not drawn) [Example 93, (Z)-5-((6-((2-(aminomethyl)-3-fluoroallyl)oxy)benzo[d]oxazol-2-yl)amino)-3-chloropentan-1-ol 4-methylbenzenesulfonate]",< 0.1,,1 to 10,1 to 10,,
"CCCCc1nc2ccc(OC/C(=C/F)CN)c(Br)c2s1 [Example 7, (E)-2-(((7-bromo-2-butylbenzo[d]thiazol-6-yl)oxy)methyl)-3-fluoroprop-2-en-1-amine]",< 0.1,,< 0.1,< 0.1,,
"NC/C(=C/F)COc1ccc2nc(NC3CCC(O)CC3)oc2c1 (stereo not drawn) [Example 78, (Z)-4-((6-((2-(aminomethyl)-3-fluoroallyl)oxy)benzo[d]oxazol-2-yl)amino)cyclohexan-1-ol 4-methylbenzenesulfonate]",< 0.1,> 50,1 to 10,,,
"NC/C(=C\F)COc1ccc2nc(C34CC5CC(CC(C5)C3)C4)oc2c1 [Example 54, (E)-2-(((2-((3r,5r,7r)-adamantan-1-yl)benzo[d]oxazol-6-yl)oxy)methyl)-3-fluoroprop-2-en-1-amine 4-methylbenzenesulfonate]",< 0.1,,1 to 10,1 to 10,,
"NC/C(=C\F)COc1ccc2nc(NCc3ccc(C(F)(F)F)nc3)oc2c1 [Example 84, (E)-6-((2-(aminomethyl)-3-fluoroallyl)oxy)-N-((6-(trifluoromethyl)pyridin-3-yl)methyl)benzo[d]oxazol-2-amine 4-methylbenzenesulfonate]",< 0.1,> 40,1 to 10,,,
"COCCNc1nc2ccc(OC/C(=C\F)CN)cc2o1 [Example 61, (Z)-6-((2-(aminomethyl)-3-fluoroallyl)oxy)-N-(2-methoxyethyl)benzo[d]oxazol-2-amine 4-methylbenzenesulfonate]",< 0.1,> 50,1 to 10,,,
"CCCCc1nc2cc(C)c(OC/C(=C/F)CN)cc2o1 [Example 68, (E)-2-(((2-butyl-5-methylbenzo[d]oxazol-6-yl)oxy)methyl)-3-fluoroprop-2-en-1-amine 4-methylbenzenesulfonate]",< 0.1,,0.1 to 1,1 to 10,,
"NC/C(=C\F)COc1ccc2nc(C34CCC(CC3)CC4)oc2c1 [Example 34, (E)-2-(((2-(bicyclo[2.2.2]octan-1-yl)benzo[d]oxazol-6-yl)oxy)methyl)-3-fluoroprop-2-en-1-amine 4-methylbenzenesulfonate]",< 0.1,,0.1 to 1,10 to 30,,
"NC/C(=C/F)COc1ccc2nc(N3CCC(O)CC3)oc2c1 [Example 77, (Z)-1-(6-((2-(aminomethyl)-3-fluoro-allyl)oxy)benzo[d]oxazol-2-yl)piperidin-4-ol 4-methylbenzenesulfonate]",< 0.1,,,1 to 10,,> 50
"CCCCc1nc2ccc(OC/C(=C/F)CN)c(F)c2o1 [Example 2, (E)-2-(((2-butyl-7-fluorobenzo[d]oxazol-6-yl)oxy)methyl)-3-fluoroprop-2-en-1-amine]",< 0.1,,< 0.1,10 to 30,,
"NC/C(=C/F)COc1ccc2nc(NCCC3COC3)oc2c1 [Example 65, (Z)-6-((2-(aminomethyl)-3-fluoroallyl)oxy)-N-(2-(oxetan-3-yl)ethyl)benzo[d]oxazol-2-amine 4-methylbenzenesulfonate]",< 0.1,,1 to 10,0.1 to 1,,
"NC/C(=C/F)COc1ccc2nc(NCc3ccc(C(F)(F)F)nc3)oc2c1 [Example 83, (Z)-6-((2-(aminomethyl)-3-fluoroallyl)oxy)-N-((6-(trifluoromethyl)pyridin-3-yl)methyl)benzo[d]oxazol-2-amine 4-methylbenzenesulfonate]",< 0.1,,1 to 10,10 to 30,,
"CCCCc1nc2c(F)cc(OC/C(=C/F)CN)cc2o1 [Example 82, (E)-2-(((2-butyl-4-fluorobenzo[d]-oxazol-6-yl)oxy)methyl)-3-fluoroprop-2-en-1-amine 4-methylbenzenesulfonate]",< 0.1,,< 0.1,1 to 10,,
"CC(C)(C)Nc1nc2ccc(OC/C(=C/F)CN)cc2o1 [Example 39, (E)-6-((2-(aminomethyl)-3-fluoroallyl)oxy)-N-(tert-butyl)benzo[d]oxazol-2-amine 4-methylbenzenesulfonate]",< 0.1,,1 to 10,10 to 30,,
"NC/C(=C\F)COc1ccc2nc(CCCCc3ccccc3)oc2c1 [Example 35, 4-methylbenzenesulfonate]",< 0.1,,< 0.1,10 to 30,,
"CNC(=O)[C@H](Cc1ccccc1)Nc1nc2ccc(OC/C(=C\F)CN)cc2o1 [Example 71, (S,Z)-2-((6-((2-(aminomethyl)-3-fluoroallyl)oxy)benzo[d]oxazol-2-yl)amino)-N-methyl-3-phenylpropanamide 4-methylbenzenesulfonate]",< 0.1,> 50,1 to 10,,,
